Biological target: T1, CRF1 receptors (Homo sapiens, UniProt P34998)
T1 construct: endogenous in cells; host or cells: IMR-32 cells, transformed with 2.5 µM 5'-bromo-2'-deoxyuridine for 10 days; membrane preparation
T1 sequence (P34998 24-415): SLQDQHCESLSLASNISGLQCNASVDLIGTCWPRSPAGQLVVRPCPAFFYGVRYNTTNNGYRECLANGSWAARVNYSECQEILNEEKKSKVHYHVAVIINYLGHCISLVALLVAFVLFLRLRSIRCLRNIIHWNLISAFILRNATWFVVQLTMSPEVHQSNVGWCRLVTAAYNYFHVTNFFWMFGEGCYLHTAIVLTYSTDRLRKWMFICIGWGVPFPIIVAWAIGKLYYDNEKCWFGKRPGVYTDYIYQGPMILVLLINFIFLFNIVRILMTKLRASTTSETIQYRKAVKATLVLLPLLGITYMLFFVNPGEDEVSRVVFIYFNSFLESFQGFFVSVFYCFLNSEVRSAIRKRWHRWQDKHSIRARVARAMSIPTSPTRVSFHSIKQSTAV
Assay: CRF1 receptor radioligand binding assay ([125I]-oCRF competition, IMR-32 cell membranes)
Details: IMR-32 cell membranes, [125I]-oCRF 100 pM; read-out: Ki (CRF-1R)
Method in brief: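 Buffer: Tris pH 7.2 with MgCl2, BSA, Triton X-100, aprotinin, leupeptin; reaction stopped with ice-cold wash and filtered. Nonspecific binding set with 10 μM oCRF.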

FC(F)(F)c1nc2n(-c3ccc(Cl)cc3Cl)c3ccccc3n2c1CN(CC1CC1)CC(F)(F)C(F)(F)F [Example 183, Cyclopropylmethyl-[8-(2,4-dichloro-phenyl)-2-trifluoromethyl-8H-1,3a,8-triaza-cyclopenta[α]inden-3-ylmethyl]-(2,2,3,3,3-pentafluoro-propyl)-amine]
Ki: < 10 µM

C=CCN(CC=C)Cc1c(C(F)(F)F)nc2n(-c3ccc(Cl)cc3Cl)c3ccccc3n12 [Example 184, Diallyl-[8-(2,4-dichloro-phenyl)-2-trifluoromethyl-8H-1,3a,8-triaza-cyclopenta[α]inden-3-ylmethyl]-amine]
Ki: < 10 µM

FC(F)(F)CN(Cc1c(C(F)(F)F)nc2n(-c3ccc(Cl)cc3Cl)c3ccccc3n12)CC1CCC1 [Example 185, Cyclobutylmethyl-[8-(2,4-dichloro-phenyl)-2-trifluoromethyl-8H-1,3a,8-triaza-cyclopenta[α]inden-3-ylmethyl]-(2,2,2-trifluoro-ethyl)-amine]
Ki: < 10 µM

CCCN(Cc1c(C(F)(F)F)nc2n(-c3ccc(Cl)cc3Cl)c3ccccc3n12)CC1CCC1 [Example 186, Cyclobutylmethyl-[8-(2,4-dichloro-phenyl)-2-trifluoromethyl-8H-1,3a,8-triaza-cyclopenta[α]inden-3-ylmethyl]-propyl-amine]
Ki: < 10 µM

CC(C)c1ccc(-n2c3ccccc3n3c(CN(CC4CC4)CC4CC4)c(C(F)(F)F)nc23)c(Br)c1 [Example 187, [8-(2-Bromo-4-isopropyl-phenyl)-2-trifluoromethyl-8H-1,3a,8-triaza-cyclopenta[α]inden-3-ylmethyl]-bis-cyclopropylmethyl-amine]
Ki: < 0.1 µM

CC(C)c1ccc(-n2c3ccccc3n3c(CN(CC4CC4)CC(F)(F)F)c(C(F)(F)F)nc23)c(Br)c1 [Example 188, [8-(2-Bromo-4-isopropyl-phenyl)-2-trifluoromethyl-8H-1,3a,8-triaza-cyclopenta[α]inden-3-ylmethyl]-cyclopropylmethyl-(2,2,2-trifluoro-ethyl)-amine]
Ki: < 0.1 µM

CC(C)c1ccc(-n2c3ccccc3n3c(CN(CCC(F)(F)F)CC4CC4)c(C(F)(F)F)nc23)c(Br)c1 [Example 189, [8-(2-Bromo-4-isopropyl-phenyl)-2-trifluoromethyl-8H-1,3a,8-triaza-cyclopenta[α]inden-3-ylmethyl]-cyclopropylmethyl-(3,3,3-trifluoro-propyl)-amine]
Ki: < 1 µM

CCN(Cc1c(C(F)(F)F)nc2n(-c3ccc(C(C)C)cc3Br)c3ccccc3n12)CC1CC1 [Example 190, [8-(2-Bromo-4-isopropyl-phenyl)-2-trifluoromethyl-8H-1,3a,8-triaza-cyclopenta[α]inden-3-ylmethyl]-cyclopropylmethyl-ethyl-amine]
Ki: < 1 µM

CC(C)c1ccc(-n2c3ccccc3n3c(CN(CC4CC4)CC(F)(F)C(F)(F)F)c(C(F)(F)F)nc23)c(Br)c1 [Example 191, [8-(2-Bromo-4-isopropyl-phenyl)-2-trifluoromethyl-8H-1,3a,8-triaza-cyclopenta[α]inden-3-ylmethyl]-cyclopropylmethyl-(2,2,3,3,3-pentafluoro-propyl)-amine]
Ki: < 1 µM

C=CCN(CC=C)Cc1c(C(F)(F)F)nc2n(-c3ccc(C(C)C)cc3Br)c3ccccc3n12 [Example 192, Diallyl-[8-(2-bromo-4-isopropyl-phenyl)-2-trifluoromethyl-8H-1,3a,8-triaza-cyclopenta[α]inden-3-ylmethyl]-amine]
Ki: < 1 µM

CCCN(CCc1ccccc1)Cc1c(C(F)(F)F)nc2n(-c3ccc(C(C)C)cc3Br)c3ccccc3n12 [Example 193, [8-(2-Bromo-4-isopropyl-phenyl)-2-trifluoromethyl-8H-1,3a,8-triaza-cyclopenta[α]inden-3-ylmethyl]-phenethyl-propyl-amine]
Ki: < 1 µM

CC(C)c1ccc(-n2c3ccccc3n3c(CN(CC4CCC4)CC(F)(F)F)c(C(F)(F)F)nc23)c(Br)c1 [Example 194, [8-(2-Bromo-4-isopropyl-phenyl)-2-trifluoromethyl-8H-1,3a,8-triaza-cyclopenta[α]inden-3-ylmethyl]-cyclobutylmethyl-(2,2,2-trifluoro-ethyl)-amine]
Ki: < 1 µM

CCCN(Cc1c(C(F)(F)F)nc2n(-c3ccc(C(C)C)cc3Br)c3ccccc3n12)CC1CCC1 [Example 195, [8-(2-Bromo-4-isopropyl-phenyl)-2-trifluoromethyl-8H-1,3a,8-triaza-cyclopenta[α]inden-3-ylmethyl]-cyclobutylmethyl-propyl-amine]
Ki: < 1 µM

CCN(CCc1ccccc1)Cc1c(C(F)(F)F)nc2n(-c3ccc(C(C)C)cc3Br)c3ccccc3n12 [Example 196, [8-(2-Bromo-4-isopropyl-phenyl)-2-trifluoromethyl-8H-1,3a,8-triaza-cyclopenta[α]inden-3-ylmethyl]-ethyl-phenethyl-amine]
Ki: < 1 µM

CCCN(CCC(F)(F)F)Cc1c(C(F)(F)F)nc2n(-c3ccc(C(C)C)cc3Br)c3ccccc3n12 [Example 197, [8-(2-Bromo-4-isopropyl-phenyl)-2-trifluoromethyl-8H-1,3a,8-triaza-cyclopenta[α]inden-3-ylmethyl]-propyl-(3,3,3-trifluoro-propyl)-amine]
Ki: < 1 µM

C=CCN(CCC)Cc1c(C(F)(F)F)nc2n(-c3ccc(C(C)C)cc3Br)c3ccccc3n12 [Example 198, Allyl-[8-(2-bromo-4-isopropyl-phenyl)-2-trifluoromethyl-8H-1,3a,8-triaza-cyclopenta[α]inden-3-ylmethyl]-propyl-amine]
Ki: < 1 µM

CC(C)c1ccc(-n2c3ccccc3n3c(CN(CCC(F)(F)F)Cc4ccc(F)cc4)c(C(F)(F)F)nc23)c(Br)c1 [Example 199, [8-(2-Bromo-4-isopropyl-phenyl)-2-trifluoromethyl-8H-1,3a,8-triaza-cyclopenta[α]inden-3-ylmethyl]-(4-fluoro-benzyl)-(3,3,3-trifluoro-propyl)-amine]
Ki: < 10 µM

CCCN(Cc1c(C(F)(F)F)nc2n(-c3ccc(C(C)C)cc3Br)c3ccccc3n12)CC(F)(F)F [Example 200, [8-(2-Bromo-4-isopropyl-phenyl)-2-trifluoromethyl-8H-1,3a,8-triaza-cyclopenta[α]inden-3-ylmethyl]-propyl-(2,2,2-trifluoro-ethyl)-amine]
Ki: < 10 µM

CC(C)c1ccc(-n2c3ccccc3n3c(CN(CCc4ccccc4)CC(F)(F)F)c(C(F)(F)F)nc23)c(Br)c1 [Example 201, [8-(2-Bromo-4-isopropyl-phenyl)-2-trifluoromethyl-8H-1,3a,8-triaza-cyclopenta[α]inden-3-ylmethyl]-phenethyl-(2,2,2-trifluoro-ethyl)-amine]
Ki: < 10 µM

CC(C)c1ccc(-n2c3ccccc3n3c(CN(CCC(F)(F)F)Cc4ccccc4)c(C(F)(F)F)nc23)c(Br)c1 [Example 202, Benzyl-[8-(2-bromo-4-isopropyl-phenyl)-2-trifluoromethyl-8H-1,3a,8-triaza-cyclopenta[α]inden-3-ylmethyl]-(3,3,3-trifluoro-propyl)-amine]
Ki: < 10 µM

CCCCN(CC)Cc1c(C(F)(F)F)nc2n(-c3ccc(C(C)C)cc3Br)c3ccccc3n12 [Example 203, [8-(2-Bromo-4-isopropyl-phenyl)-2-trifluoromethyl-8H-1,3a,8-triaza-cyclopenta[α]inden-3-ylmethyl]-butyl-ethyl-amine]
Ki: < 10 µM

CC(C)c1ccc(-n2c3ccccc3n3c(CN(CCC4CC4)CC(F)(F)F)c(C(F)(F)F)nc23)c(Br)c1 [Example 204, [8-(2-Bromo-4-isopropyl-phenyl)-2-trifluoromethyl-8H-1,3a,8-triaza-cyclopenta[α]inden-3-ylmethyl]-(2-cyclopropyl-ethyl)-(2,2,2-trifluoro-ethyl)-amine]
Ki: < 10 µM

CCCN(Cc1c(C(F)(F)F)nc2n(-c3ccc(C(C)C)cc3Br)c3ccccc3n12)CC(F)(F)C(F)(F)F [Example 205, [8-(2-Bromo-4-isopropyl-phenyl)-2-trifluoromethyl-8H-1,3a,8-triaza-cyclopenta[α]inden-3-ylmethyl]-(2,2,3,3,3-pentafluoro-propyl)-propyl-amine]
Ki: < 10 µM

CCCN(CCC)Cc1c(C(F)(F)F)nc2n(-c3ccc(C(C)C)cc3Br)c3ccccc3n12 [Example 206, [8-(2-Bromo-4-isopropyl-phenyl)-2-trifluoromethyl-8H-1,3a,8-triaza-cyclopenta[α]inden-3-ylmethyl]-dipropyl-amine]
Ki: < 10 µM

CCN(CCC1CC1)Cc1c(C(F)(F)F)nc2n(-c3ccc(C(C)C)cc3Br)c3ccccc3n12 [Example 207, [8-(2-Bromo-4-isopropyl-phenyl)-2-trifluoromethyl-8H-1,3a,8-triaza-cyclopenta[α]inden-3-ylmethyl]-(2-cyclopropyl-ethyl)-ethyl-amine]
Ki: < 10 µM

CCN(Cc1ccccc1)Cc1c(C(F)(F)F)nc2n(-c3ccc(C(C)C)cc3Br)c3ccccc3n12 [Example 208, Benzyl-[8-(2-bromo-4-isopropyl-phenyl)-2-trifluoromethyl-8H-1,3a,8-triaza-cyclopenta[α]inden-3-ylmethyl]-ethyl-amine]
Ki: < 10 µM

CCCN(Cc1ccccc1)Cc1c(C(F)(F)F)nc2n(-c3ccc(C(C)C)cc3Br)c3ccccc3n12 [Example 209, Benzyl-[8-(2-bromo-4-isopropyl-phenyl)-2-trifluoromethyl-8H-1,3a,8-triaza-cyclopenta[α]inden-3-ylmethyl]-propyl-amine]
Ki: < 10 µM

— US7125990B2, “Imidazolyl derivatives as corticotropin releasing factor inhibitors” (Bristol-Myers Squibb COmpany, priority 2001, dated 2006)
